Data from the NIST ThermoML archive (doi:10.1021/je100624p).
Numbers after ± are expanded uncertainties.

Conditions: Liquid, Closed cell (Static) method

| Compound | vapor or sublimation pressure (303.15 K) [kPa] | vapor or sublimation pressure (313.15 K) [kPa] | vapor or sublimation pressure (308.15 K) [kPa] | vapor or sublimation pressure (318.15 K) [kPa] |
| --- | --- | --- | --- | --- |
| CCO [ethanol] | 10.43 ± 0.29 | 17.84 ± 0.32 | – | – |
| CC(C)O [propan-2-ol] | 7.933 ± 0.28 | – | 10.72 ± 0.29 | – |
| O [water] | 4.186 ± 0.27 | 7.346 ± 0.27 | 5.493 ± 0.27 | 9.493 ± 0.27 |
